# Residues, ends and D or L forms follow the SMILES beside them.
# Columns and labels:
# [1] = tested on: Normal human keratinocytes (NHK); assay: Microbead (melanosome mimic) phagocytosis by keratinocytes; type: cell-based; conditions: 24 hours then microbeads 3 hours, vs control
# Experimental: Normal human keratinocytes (NHK) are seeded and cultured until a mat of confluent cells is obtained. The cells are brought into contact with the peptide according to the invention for 24 hours and a solution of fluorescent microbeads mimicking the melanosomes of the melanocyte is added for 3 hours. The beads are phagocytosed (ingested) by the keratinocytes and quantified, after rinsing, by image analysis. In parallel, the cell nuclei are counterstained using the Hoescht33258 fluorescent dye to estimate the cell quantity and to harmonize the data.
# tyrosinase = assay: Tyrosinase (dopa-oxidase) activity extracted from NHM after 10 days; type: cell-based, human; conditions: vs control, n = 4
# Experimental: The same culture and contact protocol as above are used with the melanocytes of two different donors with regard to their production of melanin (moderately and poorly pigmented).
# After contact, the tyrosinase was extracted from the cells and its dopa-oxidase activity is assessed using the substrate L-DOPA at 37° C. The absorbance due to the production of Dopaquinone is measured at 490 nm and converted to activity units using a preset range. A protein assay using the Bicinchoninic Acid (BCA) method is used to estimate cell quantity and thus to homogenize the obtained data.
# MITF [2] = assay: Expression of melanogenesis genes in NHM (qRTPCR): MITF; type: cell-based, human; conditions: 72 h, vs control, n = 4
# Experimental: (§1) NHM are cultivated and brought into contact with the peptide according to the invention or its solvent. At the end of 72 h of contact, the melanocytes are crushed, and the mRNAs are recovered, converted into cDNA which are analyzed by qRTPCR, to estimate the changes in the expression level of the mRNAs. The expression of the following genes has been studied: MITF, TYRP1 and CREB.
# [3] = In-vivo tolerance: adverse effects reported by the volunteers; design: species or system human
# Experimental: (§2) The in-vivo tests were carried out by applying the hair lotion described above in point 1) in the Galenic part. This lotion comprises 90 ppm of the peptide of the invention. Four independent studies were conducted with a total of 84 volunteers (average age of the entire panel of selected volunteers was 42 years). All four studies were conducted over a wide range of geographical locations, times, seasons, application sites, phototypes and methods. The details are specified in the below table.
# BCL-2 gene = BCL-2 gene expression in NHM (qRTPCR); type: cell-based, human; conditions: 72 hours, vs control
# Experimental: NHM are cultivated and brought into contact with the peptide according to the invention or its solvent. At the end of 72 hours of contact, the melanocytes are crushed, and the mRNA are recovered, converted into cDNA which are analyzed by a qRTPCR to evaluate the changes in the level of expression of the mRNA of BCL-2.
# MITF [4] = assay: MITF labelling by immunohistology in isolated hair follicles; type: cell-based, human; conditions: 10 ppm, 8 days; decreases in the control case
# Experimental: (§3) Follicles comprising their bulb with little pigment and isolated from a scalp plasty (resulting from cosmetic surgery— donor, dark blond; person) are placed individually in the wells of a culture plate containing the culture medium and maintained for survival (37° C.; 5% CO2).
# (§4) Twelve follicles are reserved for T0 to serve as a reference for visual estimation and quantification of pigmentation but also for subsequent labeling of MC1R and MITF by immunohistology (six follicles for each marker).
# (§5) Twelve follicles are placed in contact with the peptide according to the invention at 10 ppm in its solvent and twelve others in contact with the solvent alone for 8 days (0.1% DMSO in culture medium). At 8 days, all the follicles are stopped and fixed, then sectioned (7 μm) and marked with alunated carmine and photographed under a microscope. Sections of 6 of them (for each group) are used for visual and quantitative assessment by image analysis of their pigmentation (with specific filter to measure melanin). Sections of the other 6 are used for MC1R and MITF scoring, which is to be assessed by visual estimation.
# [5] = tested on: white and non-white hairs of volunteers; assay: In-vivo non-white/white hair ratio by TrichoScan micro-photos; design: species or system human; conditions: lotion 90 ppm, 18 volunteers, temples, T 4 m
# Experimental: as §2
# Only one study (at site 2) used this technology (a new tool for analyzing hair growth) which has the advantage of providing data on a very small area and seeing the hair individually. The scalp area is identified and shaved a few days before the photo, and this at different times. Widely used for the study of hair loss, with this technology, thanks to its high magnification, it is also possible to work on hair coloring. The TrichoScan® system includes an epiluminescence microcamera system.
# 2.4—Evaluation of the Number of White Hairs and Non-White Hairs The TrichoScan® software was used to determine the number of white hairs, the number of black hairs and the calculation of the black/white ratio. This ratio increases with the number of dark hairs when the treatment acts.
# catalase = assay: Catalase activity of the NHM (resorufin reagent); type: cell-based, human; conditions: 24 h, vs control
# Experimental: NHM almost at confluence are brought into contact with the peptide according to the invention for 24 hours. At the end of this contact, the cells are crushed. The catalase activity extracted from these cells is measured using resorufin reagent. The latter combines with the H2O2 remaining in the reaction well after the action of cellular catalase. A protein assay using bicinchoninic acid (BCA) method is used to estimate the cell quantity to homogenize the obtained data.
# TYRP1 = assay: Expression of melanogenesis genes in NHM (qRTPCR): TYRP1; type: cell-based, human; conditions: 72 h, vs control, n = 4
# Experimental: as §1
# [6] = tested on: hair follicles (bulb) from a scalp plasty; assay: Melanin production in the bulb of isolated hair follicles kept in survival for 8 days; type: cell-based, human; conditions: 10 ppm
# Experimental: as §3, §4, §5
smiles,measurement,setting,value
"CCCCCCCCCCCCCCCC(=O)N1CCC[C@H]1C(=O)N1CCC[C@H]1C(=O)O [Pal-PP-OH, palmitoyl-prolyl-proline] (HELM PEPTIDE1{[CCCCCCCCCCCCCCCC(=O)[*:2]].P.P}$$$$V2.0)","Number of microbeads per image analysis, Variation (%)","[1]; 5 ppm, n = 3",+50%; p < 0.05
same,"Number of microbeads per image analysis, Variation (%)","[1]; 10 ppm, n = 3",+283%; p < 0.01
same,"Number of microbeads per image analysis, Variation (%)","[1]; 10 ppm, n = 3, listed as peptide according to the invention",+283%
same,"Tyrosinase activity, Variation (%)","tyrosinase; 5 ppm, poorly pigmented (§§) NHM",+15%; p < 0.05
same,"Tyrosinase activity, Variation (%)","tyrosinase; 7 ppm, moderately pigmented (§) NHM",+14%; p < 0.01
same,"Tyrosinase activity, Variation (%)","tyrosinase; 10 ppm, moderately pigmented (§) NHM",+27%; p < 0.01
same,"Tyrosinase activity, Variation (%)","tyrosinase; 10 ppm, poorly pigmented (§§) NHM",+74%; p < 0.01
same,variation in the expression of MITF gene,MITF [2]; 10 ppm,+39%; p < 0.01
same,variation in the expression of MITF gene,MITF [2]; 12.5 ppm,+42%; p < 0.01
same,negative feedbacks,[3]; 3 months after the last application,no negative feedbacks
same,adverse effects,"[3]; lotion 90 ppm, at 3 or 4 months",No adverse effects were reported
same,"expression of the BCL-2 gene, Variation (%)","BCL-2 gene; 10 ppm, n = 4",+62%; p < 0.01
same,"expression of the BCL-2 gene, Variation (%)","BCL-2 gene; 12.5 ppm, n = 4",+99%; p < 0.01
same,"expression of the BCL-2 gene, Variation (%)","BCL-2 gene; 12.5 ppm, n = 4, listed as peptide of the invention",+99%
same,"MITF in the bulb, visual estimation compared to T0",MITF [4],increased
same,"non-white/white hair Ratio, Maximum (variation)",[5],+385%
same,"non-white/white hair Ratio, Mean",[5],2.56
same,"non-white/white hair Ratio, respondents",[5],72%
same,"non-white/white hair Ratio, % Variation vs. T0",[5]; listed as peptide according to the invention,approximately +27.4%
same,"non-white/white hair Ratio, % Variation vs. T0",[5]; listed as peptide of the invention,+27.4%
same,"Catalase activity, Variation (%)","catalase; 10 ppm, n = 3",+31%; p < 0.01
same,"Catalase activity, Variation (%)","catalase; 12.5 ppm, n = 3",+37%; p < 0.01
same,"Catalase activity, Variation (%)","catalase; 12.5 ppm, n = 3, listed as peptide according to the invention",+37%
same,variation in the expression of TYRP1 gene,TYRP1; 10 ppm,+42%; p < 0.01
same,variation in the expression of TYRP1 gene,TYRP1; 12.5 ppm,+54%; p < 0.01
same,"dark pixels corresponding to the deposition of melanin, vs control follicles",[6]; 6 follicles,11.6 times
same,"Melanin, Quantification by image analysis; % area occupied by black pixels","[6]; follicle bulb, vs control, n = 6 follicles",×11.6; p < 0.01
